Measurements: US8431565B2 (priority 2007, dated 2013)

Target: T1, rat CB2 receptor (rCB2) (Rattus norvegicus, UniProt Q9QZN9)
T1 sequence (Q9QZN9 1-360): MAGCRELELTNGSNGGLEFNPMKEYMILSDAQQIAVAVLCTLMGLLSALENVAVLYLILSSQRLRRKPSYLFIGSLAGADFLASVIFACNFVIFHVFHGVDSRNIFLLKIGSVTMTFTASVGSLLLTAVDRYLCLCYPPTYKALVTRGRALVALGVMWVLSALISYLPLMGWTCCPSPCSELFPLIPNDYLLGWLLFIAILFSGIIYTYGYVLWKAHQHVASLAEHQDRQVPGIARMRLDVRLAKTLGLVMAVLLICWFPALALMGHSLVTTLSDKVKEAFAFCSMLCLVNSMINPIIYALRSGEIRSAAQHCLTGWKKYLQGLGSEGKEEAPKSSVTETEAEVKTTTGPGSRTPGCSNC

Compound CCN1CCn2c(-c3ccc(Cl)cc3)nc(C(=O)NCCC(C)C)c2C1 [Compound 158, 3-(4-chlorophenyl)-7-ethyl-N-isopentyl-5,6,7,8-tetrahydroimidazo[1,5-a]pyrazine-1-carboxamide] has an EC50 of 10 to 100 nM.

Compound CNC(=O)[C@@H](NC(=O)c1nc(-c2ccccc2)n2c1CN(c1cncc(Cl)n1)CC2)C(C)(C)C [Compound 300, (S)-7-(6-chloropyrazin-2-yl)-N-(3,3-dimethyl-1-(methylamino)-1-oxobutan-2-yl)-3-phenyl-5,6,7,8-tetrahydroimidazo[1,5-a]pyrazine-1-carboxamide] has an EC50 of 10 to 100 nM.

CNC(=O)[C@@H](NC(=O)c1nc(-c2ccccc2)n2c1CN(S(=O)(=O)c1ccccc1[N+](=O)[O-])CC2)C(C)(C)C [Compound 97, (S)-N-(3,3-dimethyl-1-(methylamino)-1-oxobutan-2-yl)-7-(2-nitrophenylsulfonyl)-3-phenyl-5,6,7,8-tetrahydroimidazo[1,5-a]pyrazine-1-carboxamide] gave an EC50 of 10 to 100 nM.

Compound CC(C)CN1CCn2c(-c3ccccc3)nc(C(=O)Nc3ccccc3)c2C1 [Compound 150, 7-isobutyl-N,3-diphenyl-5,6,7,8-tetrahydroimidazo[1,5-a]pyrazine-1-carboxamide] has an EC50 of 10 to 100 nM.

CNC(=O)[C@@H](NC(=O)c1nc(/C=C/CN2CCCC2)n2c1CN(C)CC2)C(C)(C)C [Compound 288, (S,E)-N-(3,3-dimethyl-1-(methylamino)-1-oxobutan-2-yl)-7-methyl-3-(3-(pyrrolidin-1-yl)prop-1-enyl)-5,6,7,8-tetrahydroimidazo[1,5-a]pyrazine-1-carboxamide] gave an EC50 of 0.1 to 10 nM.

CC(C)(C)[C@@H](CO)NC(=O)c1nc(-c2ccccc2)n2c1CN(CC1CC1)CC2 [Compound 84, (S)-7-(cyclopropylmethyl)-N-(1-hydroxy-3,3-dimethylbutan-2-yl)-3-phenyl-5,6,7,8-tetrahydroimidazo[1,5-a]pyrazine-1-carboxamide] was tested, and the EC50 was 10 to 100 nM.

Work on COC(=O)[C@@H](NC(=O)c1nc(-c2ccc(C)cc2F)n2c1CNCCC2)C(C)(C)C [Compound 466] yielded an EC50 of 10 to 100 nM.

With CCN1CCn2c(-c3ccccc3)nc(C(=O)N[C@H](C)C3CCCCC3)c2C1 [Compound 164, (R)-N-(1-cyclohexylethyl)-7-ethyl-3-phenyl-5,6,7,8-tetrahydroimidazo[1,5-a]pyrazine-1-carboxamide] the EC50 was 10 to 100 nM.

With CC(C)(C)OC(=O)N1CCn2c(-c3ccccc3)nc(C(=O)NC3CCCCC3)c2C1 [Compound 36, tert-butyl 1-(cyclohexylcarbamoyl)-3-phenyl-5,6-dihydroimidazo[1,5-a]pyrazine-7(8H)-carboxylate] the EC50 was 10 to 100 nM.

Compound CC(C)(C)C(=O)N1CCn2c(-c3ccccc3)nc(C(=O)NC3C4(C)CCC(C4)C3(C)C)c2C1 (centres unmarked) [Compound 123, 3-phenyl-7-pivaolyl-N-(1,3,3-trimethylbicyclo[2.2.1]heptan-2-yl)-5,6,7,8-tetrahydroimidazo[1,5-a]pyrazine-1-carboxamide] has an EC50 of 10 to 100 nM.

CNC(=O)[C@@H](NC(=O)c1nc(-c2ccccc2)n2c1CN(C(=O)C(C)C)CC2)C(C)(C)C [Compound 191, (S)-N-(3,3-dimethyl-1-(methylamino)-1-oxobutan-2-yl)-7-isobutyryl-3-phenyl-5,6,7,8-tetrahydroimidazo[1,5-a]pyrazine-1-carboxamide] was tested, and the EC50 was 10 to 100 nM.

Compound CC(C)CN1CCn2c(-c3ccccc3)nc(C(=O)N[C@H](C(=O)N(C)C)C(C)(C)C)c2C1 [Compound 80, (S)-N-(1-(dimethylamino)-3,3-dimethyl-1-oxobutan-2-yl)-7-isobutyl-3-phenyl-5,6,7,8-tetrahydroimidazo[1,5-a]pyrazine-1-carboxamide] has an EC50 of 10 to 100 nM.

Work on CNC(=O)[C@@H](NC(=O)c1nc(-c2ccc(C(C)(C)C)cc2)n2c1CN(C)CCC2)C(C)(C)C [Compound 414, (S)-3-(4-tert-butylphenyl)-N-(3,3-dimethyl-1-(methylamino)-1-oxobutan-2-yl)-8-methyl-6,7,8,9-tetrahydro-5H-imidazo[1,5-a][1,4]diazepine-1-carboxamide] yielded an EC50 of 10 to 100 nM.

In the case of CC(C)(C)CNC(=O)c1nc(-c2ccccc2)n2c1CN(S(=O)(=O)c1ccccc1)CC2 [Compound 104, N-neopentyl-3-phenyl-7-(phenylsulfonyl)-5,6,7,8-tetrahydroimidazo[1,5-a]pyrazine-1-carboxamide], the EC50 is reported as 10 to 100 nM.

For COC(=O)[C@@H](NC(=O)c1nc(-c2ccc(C)cc2F)n2c1CN(CC1CC1)CCC2)C(C)(C)C [Compound 470, (S)-methyl 2-(8-(cyclopropylmethyl)-3-(2-fluoro-4-methylphenyl)-6,7,8,9-tetrahydro-5H-imidazo[1,5-a][1,4]diazepine-1-carboxamido)-3,3-dimethylbutanoate], the EC50 was 10 to 100 nM.

With CNC(=O)[C@@H](NC(=O)c1nc(-c2ccccc2)n2c1CN(CC1CC1)CC2)C(C)(C)C [Compound 56, (S)-7-(cyclopropylmethyl)-N-(3,3-dimethyl-1-(methylamino)-1-oxobutan-2-yl)-3-phenyl-5,6,7,8-tetrahydroimidazo[1,5-a]pyrazine-1-carboxamide] the EC50 was 10 to 100 nM.

For CNC(=O)[C@@H](NC(=O)c1nc(-c2ccccc2)n2c1CN(Cc1cccn1C)CC2)C(C)(C)C [Compound 71, (S)-N-(3,3-dimethyl-1-(methylamino)-1-oxobutan-2-yl)-7-((1-methyl-1H-pyrrol-2-yl)methyl)-3-phenyl-5,6,7,8-tetrahydroimidazo[1,5-a]pyrazine-1-carboxamide], the EC50 was 10 to 100 nM.

In the case of CNC(=O)[C@@H](NC(=O)c1nc(-c2ccc(Cl)cc2F)n2c1CN(C(=O)OC(C)(C)C)CCC2)C(C)(C)C [Compound 313], the EC50 is reported as 10 to 100 nM.

In the case of CNC(=O)[C@@H](NC(=O)c1nc(-c2ccc(Cl)cc2)n2c1CN(C)CC2)C(C)(C)C [Compound 49, (S)-3-(4-chlorophenyl)-N-(3,3-dimethyl-1-(methylamino)-1-oxobutan-2-yl)-7-methyl-5,6,7,8-tetrahydroimidazo[1,5-a]pyrazine-1-carboxamide], the EC50 is reported as 10 to 100 nM.

CC(C)CN1CCn2c(-c3ccccc3)nc(C(=O)NC3CCCCC3)c2C1 [Compound 165, N-cyclohexyl-7-isobutyl-3-phenyl-5,6,7,8-tetrahydroimidazo[1,5-a]pyrazine-1-carboxamide] gave an EC50 of 0.1 to 10 nM.

Cc1nnc([C@@H](NC(=O)c2nc(-c3ccccc3)n3c2CN(CC(C)C)CC3)C(C)(C)C)o1 [Compound 202, (S)-N-(2,2-dimethyl-1-(5-methyl-1,3,4-oxadiazol-2-yl)propyl)-7-isobutyl-3-phenyl-5,6,7,8-tetrahydroimidazo[1,5-a]pyrazine-1-carboxamide] gave an EC50 of 10 to 100 nM.

CNC(=O)[C@@H](NC(=O)c1nc(-c2ccc(Cl)cc2F)n2c1CN(C)CC2)C(C)(C)C [Compound 241, (S)-3-(4-chloro-2-fluorophenyl)-N-(3,3-dimethyl-1-(methylamino)-1-oxobutan-2-yl)-7-methyl-5,6,7,8-tetrahydroimidazo[1,5-a]pyrazine-1-carboxamide] was tested, and the EC50 was 0.1 to 10 nM.

In the case of C[C@@H](NC(=O)c1nc(-c2ccccc2)n2c1CN(C(=O)OC(C)(C)C)CC2)C1CCCCC1 [Compound 37, (R)-tert-butyl 1-(1-cyclohexylethylcarbamoyl)-3-phenyl-5,6-dihydroimidazo[1,5-a]pyrazine-7(8H)-carboxylate], the EC50 is reported as 10 to 100 nM.
